Reference: ChEMBL document CHEMBL1201862, “PubChem BioAssay data set” (2004)
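Tested at 5 concentrations; 48 h exposure; 96-well plates; endpoints linearly interpolated, else capped at highest concentration. Abbreviation: GI50, concentration required for 50% inhibition of growth.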 The source made the active and inactive calls. Rule as the data show it: active = GI50 up to about 1.1 µM and inactive = higher.

Columns and labels:
Assay in all cases: growth of human tumour cells (NCI), 48 h
OVCAR-5 = system: OVCAR-5
DU-145 = system: DU-145
Hs-578T = system: Hs-578T
SK-OV-3 = system: SK-OV-3
SR = system: SR
ACHN = system: ACHN
SW-620 = system: SW-620
M14 = system: M14
U-251 = system: U-251
RPMI-8226 = system: RPMI-8226
SNB-75 = system: SNB-75
SK-MEL-28 = system: SK-MEL-28
HCC 2998 = system: HCC 2998
NCI-H522 = system: NCI-H522
HOP-92 = system: HOP-92
COLO 205 = system: COLO 205
NCI-H226 = system: NCI-H226
A549 = system: A549
UO-31 = system: UO-31
DMS-273 = system: DMS-273

Structure (SMILES) | GI50 (OVCAR-5) | GI50 (DU-145) | GI50 (Hs-578T) | GI50 (SK-OV-3) | GI50 (SR) | GI50 (ACHN) | GI50 (SW-620) | GI50 (M14) | GI50 (U-251) | GI50 (RPMI-8226) | GI50 (SNB-75) | GI50 (SK-MEL-28) | GI50 (HCC 2998) | GI50 (NCI-H522) | GI50 (HOP-92) | GI50 (COLO 205) | GI50 (NCI-H226) | GI50 (A549) | GI50 (UO-31) | GI50 (DMS-273)
CC[P+]1(c2ccccc2)[C@@H](C)CC[C@@H]1C | > 100 µM (inactive) | > 100 µM (inactive) | > 100 µM (inactive) | > 100 µM (inactive) | > 100 µM (inactive) | > 100 µM (inactive) | > 100 µM (inactive) | > 100 µM (inactive) | 40.5 µM (inactive) | > 100 µM (inactive) | > 100 µM (inactive) | > 100 µM (inactive) | > 100 µM (inactive) | > 100 µM (inactive) | 39.1 µM (inactive) | 85.1 µM (inactive) | > 100 µM (inactive) | > 100 µM (inactive) | > 100 µM (inactive) | –
O=C1CCCC/C1=C(\Br)I | 18.8 µM (inactive) | 16 µM (inactive) | 35.4 µM (inactive) | 22 µM (inactive) | 2.67 µM (inactive) | 16.1 µM (inactive) | 3.39 µM (inactive) | 6.78 µM (inactive) | 18 µM (inactive) | 2.86 µM (inactive) | 16.9 µM (inactive) | 15.7 µM (inactive) | 4.95 µM (inactive) | 1.56 µM (inactive) | 17.9 µM (inactive) | 15.1 µM (inactive) | 23.4 µM (inactive) | 23.3 µM (inactive) | 17.7 µM (inactive) | –
O=C1C(N2CCN(c3ccccn3)CC2)=C(Cl)C(=O)c2ncccc21 | > 10 µM (inactive) | > 6.76 µM (inactive) | > 4.49 µM (inactive) | > 10 µM (inactive) | 2.28 µM (inactive) | 2.14 µM (inactive) | 1.23 µM (inactive) | 1.98 µM (inactive) | > 10 µM (inactive) | 0.353 µM (active) | > 10 µM (inactive) | 2.89 µM (inactive) | > 4.63 µM (inactive) | 0.142 µM (active) | 1.58 µM (inactive) | 1.96 µM (inactive) | > 10 µM (inactive) | > 10 µM (inactive) | 3.27 µM (inactive) | –
COc1cc2c(c3oc4c(O)cccc4c(=O)c13)CC(C(C)(O)CCl)O2 (centres undefined) | 6.34 µM (inactive) | 2.31 µM (inactive) | 2.03 µM (inactive) | 4.35 µM (inactive) | < 0.0338 µM (active) | 0.114 µM (active) | 0.0277 µM (active) | 0.256 µM (active) | 1.98 µM (inactive) | 0.0661 µM (active) | 3.35 µM (inactive) | 0.968 µM (active) | 1.32 µM (inactive) | 1.73 µM (inactive) | 2.45 µM (inactive) | 0.373 µM (active) | 5.81 µM (inactive) | 2.54 µM (inactive) | 0.807 µM (active) | –
CC(C)=CC1CC(C)C2(CCC3(C)CC4C(C(=O)CC4(C)O)/C(C=O)=C\CC32)O1 (centres undefined) | 0.14 µM (active) | 0.129 µM (active) | 0.13 µM (active) | 0.148 µM (active) | 0.03 µM (active) | 0.0324 µM (active) | 0.0205 µM (active) | 0.134 µM (active) | 0.0735 µM (active) | 0.0255 µM (active) | 0.142 µM (active) | 0.104 µM (active) | 0.178 µM (active) | 0.028 µM (active) | 0.0703 µM (active) | 0.0596 µM (active) | 0.0689 µM (active) | 0.0685 µM (active) | 0.0355 µM (active) | –
CO[C@@H]1C[C@H](OC(N)=O)[C@@H]2C=C[C@@H]3/C=C(C)/C=C/[C@@H](C)[C@H]([C@H](C)[C@H](O)[C@@H](C)NC(C)=O)OC(=O)/C=C/C=C(C)\C=C\[C@]3(C)[C@@H]2C1 | 1.42 µM (inactive) | < 0.01 µM (active) | < 0.01 µM (active) | < 0.0504 µM (active) | < 0.01 µM (active) | < 0.01 µM (active) | < 0.01 µM (active) | < 0.01 µM (active) | < 0.01 µM (active) | < 0.01 µM (active) | < 0.01 µM (active) | < 0.01 µM (active) | < 0.01 µM (active) | < 0.01 µM (active) | < 0.01 µM (active) | < 0.01 µM (active) | < 0.01 µM (active) | < 0.01 µM (active) | < 0.01 µM (active) | –
C=C(C)C1CCC2(C)C1CCC1(C)C2CCC2C3(C)C4OC(OC4=O)C(C)(C)C3CCC21C (centres undefined) | > 100 µM (inactive) | > 100 µM (inactive) | > 100 µM (inactive) | > 100 µM (inactive) | > 100 µM (inactive) | > 100 µM (inactive) | > 100 µM (inactive) | > 100 µM (inactive) | > 100 µM (inactive) | > 100 µM (inactive) | > 100 µM (inactive) | > 100 µM (inactive) | > 100 µM (inactive) | 14.6 µM (inactive) | > 100 µM (inactive) | 48.3 µM (inactive) | > 100 µM (inactive) | > 100 µM (inactive) | > 100 µM (inactive) | –
CSC12c3cc(C)n(-c4ccc(I)cc4)c3CC(C)(C)CN1C(=O)C2Oc1ccccc1 (centres undefined) | > 100 µM (inactive) | > 100 µM (inactive) | > 100 µM (inactive) | > 100 µM (inactive) | > 91.2 µM (inactive) | > 100 µM (inactive) | > 100 µM (inactive) | > 100 µM (inactive) | > 100 µM (inactive) | > 71.1 µM (inactive) | > 100 µM (inactive) | > 100 µM (inactive) | > 100 µM (inactive) | > 100 µM (inactive) | > 100 µM (inactive) | > 100 µM (inactive) | > 100 µM (inactive) | > 96.4 µM (inactive) | > 100 µM (inactive) | –
Nc1ccc(C(=O)N2CCC[C@H]2CO)c(N)c1 | > 100 µM (inactive) | > 100 µM (inactive) | > 100 µM (inactive) | > 100 µM (inactive) | > 100 µM (inactive) | > 100 µM (inactive) | > 100 µM (inactive) | > 100 µM (inactive) | > 100 µM (inactive) | > 100 µM (inactive) | > 100 µM (inactive) | > 100 µM (inactive) | > 100 µM (inactive) | > 100 µM (inactive) | > 100 µM (inactive) | > 100 µM (inactive) | > 100 µM (inactive) | > 100 µM (inactive) | > 100 µM (inactive) | –
COc1ccc(C(C#N)NC23CC4CC(CC(C4)C2)C3)cc1 (centres undefined) | > 100 µM (inactive) | > 100 µM (inactive) | > 100 µM (inactive) | > 100 µM (inactive) | > 100 µM (inactive) | > 100 µM (inactive) | > 100 µM (inactive) | > 100 µM (inactive) | > 100 µM (inactive) | > 100 µM (inactive) | > 100 µM (inactive) | > 100 µM (inactive) | > 100 µM (inactive) | > 100 µM (inactive) | 67.9 µM (inactive) | > 100 µM (inactive) | > 100 µM (inactive) | > 100 µM (inactive) | > 100 µM (inactive) | –
Oc1c(C2=NNC(c3cccs3)C2)ccc2ccccc12 (centres undefined) | 29.6 µM (inactive) | 20.9 µM (inactive) | 17.1 µM (inactive) | 27.4 µM (inactive) | 8.89 µM (inactive) | 27.7 µM (inactive) | 24.5 µM (inactive) | 14.4 µM (inactive) | 25 µM (inactive) | 17.7 µM (inactive) | 21.3 µM (inactive) | 36 µM (inactive) | 14.8 µM (inactive) | 21.9 µM (inactive) | 18.2 µM (inactive) | 19.5 µM (inactive) | 24.9 µM (inactive) | 25.3 µM (inactive) | 32.4 µM (inactive) | –
O=C(O)CCC(C(=O)O)N1C(=O)c2ccccc2C1=O (centres undefined) | > 100 µM (inactive) | > 100 µM (inactive) | > 100 µM (inactive) | > 100 µM (inactive) | > 100 µM (inactive) | > 100 µM (inactive) | > 100 µM (inactive) | > 100 µM (inactive) | > 100 µM (inactive) | > 100 µM (inactive) | > 100 µM (inactive) | > 100 µM (inactive) | > 100 µM (inactive) | > 100 µM (inactive) | > 100 µM (inactive) | > 100 µM (inactive) | > 100 µM (inactive) | > 100 µM (inactive) | > 100 µM (inactive) | –
Cc1cs/c(=N\C(P(=O)(O)O)P(=O)(O)O)n1C | > 100 µM (inactive) | > 100 µM (inactive) | 10.1 µM (inactive) | > 100 µM (inactive) | > 100 µM (inactive) | > 100 µM (inactive) | > 100 µM (inactive) | > 100 µM (inactive) | > 100 µM (inactive) | > 100 µM (inactive) | > 100 µM (inactive) | > 100 µM (inactive) | > 100 µM (inactive) | > 100 µM (inactive) | 42.9 µM (inactive) | > 100 µM (inactive) | > 100 µM (inactive) | > 100 µM (inactive) | > 100 µM (inactive) | –
COS(C)(=O)=O [METHANESULFONIC ACID METHYL ESTER] | > 2 µM (inactive) | > 2 µM (inactive) | > 2 µM (inactive) | > 2 µM (inactive) | > 2 µM (inactive) | > 2 µM (inactive) | > 2 µM (inactive) | > 2 µM (inactive) | > 2 µM (inactive) | > 2 µM (inactive) | > 2 µM (inactive) | > 2 µM (inactive) | > 2 µM (inactive) | > 2 µM (inactive) | > 2 µM (inactive) | > 2 µM (inactive) | > 2 µM (inactive) | > 2 µM (inactive) | > 2 µM (inactive) | –
O=[PH](O)c1cc2c3ccccc3ccc2c2ccccc12 | – | – | – | > 100 µM (inactive) | – | – | > 100 µM (inactive) | > 100 µM (inactive) | > 100 µM (inactive) | > 100 µM (inactive) | > 100 µM (inactive) | > 100 µM (inactive) | > 100 µM (inactive) | > 100 µM (inactive) | – | > 100 µM (inactive) | 13.9 µM (inactive) | > 100 µM (inactive) | – | > 100 µM (inactive)
